From paper PMC11157103, “Exploration of morpholine-thiophene hybrid thiosemicarbazones for the treatment of ureolytic bacterial infections via targeting urease enzyme: Synthesis, biochemical screening and computational analysis” (Frontiers in Chemistry, 2024) come the findings set out here.

Data set [1] deals with jack bean urease (Canavalia ensiformis, UniProt P07374). Description: biochemical. Type of data set: biochemical. The note with it: for fold stronger inhibitory potential than thiourea: relative to thiourea IC50. Here is the method:
The indophenol method with a little modification was used to determine the urease inhibitory activity of synthetic compounds (5a-i) ([Weatherburn, 1967]; [Yaseen et al., 2016]). Thiourea was used as a standard inhibitor. The assay mixture was comprised of 40 μL of buffer (100 mmol/L urea, 0.01 mol/L K2HPO4, 1 mmol/L EDTA and 0.01 mol/L […], pH 8.2), 10 μL of jack bean urease (5 U/mL) and 10 μL of test compound (1 mM). The reaction mixture was incubated for 30 min with 10 μL urea (1 mM) at 37 °C in 96-well plate. The phenol reagent (40 μL, 1% w/v phenol, 0.005% w/v sodium nitroprusside) and alkali reagent (40 μL, 0.5% w/v NaOH, 0.1% active chloride NaOCl) were added to each well and after 10 min of incubation at 37 °C, the absorbance was measured at 630 nm using a microplate reader (Bio-Tek ELx 800™, Instruments, Inc. United States). The experiments to determine the inhibitory activity of compounds were performed in triplicates. The percentage inhibition was calculated by using the formula given below. Inhibition %=100 – Absorbance of the test compound/Absorbance of the control×100
Compounds showing >50% inhibition against urease were further evaluated for the determination of IC50 values at various concentrations (0.1, 0.3, 1, 3, 10, 30, 100, 300, 1,000 μM) against jack bean urease. The experiments were performed in triplicate. IC50 values were calculated by using the non-linear curve fitting program PRISM 5.0 (GraphPad, San Diego, California, United States) to analyze the results.

The target in data set [2] is urease (Canavalia ensiformis, UniProt P07374). Description: Kinetics analysis (Michaelis-Menten, Lineweaver-Burk plot). Type of data set: biochemical, jack bean. Conditions: urea 25-150 mM, inhibitor 0, 1.9, 3.8, 5.7 μM. Here is the method: These experiments helped in the assessment of K m and V max values to predict the mechanism of urease inhibition by plotting reciprocal of reaction rate 1/V (y-axis) against reciprocal of substrate concentrations 1/[S] (x-axis).
The rate of enzyme inhibition was accessed across numerous concentrations of substrate (25, 50, 100, 150 mM) and compound 5g (0, 1.9, 3.8, 5.7 μM) against urease. Afterwards, the data was plotted to obtain the Lineweaver-Burk plot by using GraphPad Prism version 10.2.1.

SMILES strings stand for the structures. Read-outs that look alike come from different tables or passages of the source.

jack bean urease, sequence (P07374 whole entry, looked up): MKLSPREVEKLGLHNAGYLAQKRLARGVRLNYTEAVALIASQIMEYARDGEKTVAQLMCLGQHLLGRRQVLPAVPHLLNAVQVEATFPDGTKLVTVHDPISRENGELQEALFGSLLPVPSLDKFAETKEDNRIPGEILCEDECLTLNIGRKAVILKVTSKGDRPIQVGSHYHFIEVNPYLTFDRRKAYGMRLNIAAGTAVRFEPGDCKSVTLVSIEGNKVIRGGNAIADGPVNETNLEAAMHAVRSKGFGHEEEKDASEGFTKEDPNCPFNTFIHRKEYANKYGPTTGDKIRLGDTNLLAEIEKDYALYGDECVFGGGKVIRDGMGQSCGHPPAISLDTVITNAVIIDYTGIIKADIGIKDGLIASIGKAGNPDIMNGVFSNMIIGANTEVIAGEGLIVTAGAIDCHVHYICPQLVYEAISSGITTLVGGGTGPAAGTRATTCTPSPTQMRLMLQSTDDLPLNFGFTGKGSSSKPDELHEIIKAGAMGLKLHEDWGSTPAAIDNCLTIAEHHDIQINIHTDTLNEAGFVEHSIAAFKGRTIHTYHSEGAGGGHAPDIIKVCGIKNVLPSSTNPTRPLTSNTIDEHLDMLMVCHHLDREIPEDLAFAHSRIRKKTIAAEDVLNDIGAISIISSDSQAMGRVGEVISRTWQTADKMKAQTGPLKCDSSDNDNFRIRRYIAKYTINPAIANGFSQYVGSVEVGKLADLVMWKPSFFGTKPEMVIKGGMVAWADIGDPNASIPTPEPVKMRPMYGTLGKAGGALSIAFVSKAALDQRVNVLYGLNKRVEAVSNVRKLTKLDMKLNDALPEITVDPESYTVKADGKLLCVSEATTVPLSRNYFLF
urease, sequence (P07374 whole entry, looked up): as above

As a reminder, the IC50 is the midpoint of a concentration-inhibition curve. Consider `S=C(NCCN1CCOCC1)NN=Cc1cccs1` [Compound 5a, N-(2-morpholinoethyl)-2-(thiophen-2-ylmethylene)hydrazinecarbothioamide], for which, in data set [1], the midpoint of inhibition, the IC50, lay at 4.94 ± 2.7 µM and the “fold stronger inhibitory potential than thiourea” value amounted to 4.5 fold.

Consider `NC(N)=S` [Thiourea, reference compound], for which the IC50 in data set [1] (jack bean urease, indophenol method, triplicate, read-out: Urease inhibition IC50 ± SEM) was found to be 22.31 ± 0.03 µM.

A word on the melting point: it is the temperature of the solid-liquid transition. `CC(=NNC(=S)NCCN1CCOCC1)c1ccc(Cl)s1` [Compound 5g, 2-(1-(5-Chlorothiophen-2-yl)ethylidene)-N-(2-morpholinoethyl)hydrazinecarbothioamide] had a melting point of 148 to 150 °C. This compound also returned an IC50 in data set [1] of 3.8 ± 1.9 µM. For the same compound, in data set [2], the “mechanism of urease inhibition” value is “uncompetitive inhibition”.

`CC(=NNC(=S)NCCN1CCOCC1)c1sccc1Cl` [Compound 5e, 2-(1-(3-Chlorothiophen-2-yl)ethylidene)-N-(2-morpholinoethyl)hydrazinecarbothioamide] gave a melting point of 116 to 118 °C. The IC50 in data set [1] came to 4.81 ± 1.5 µM.

Compound `CC(=NNC(=S)NCCN1CCOCC1)c1cc(C)cs1` [Compound 5c, 2-(1-(4-Methylthiophen-2-yl)ethylidene)-N-(2-morpholinoethyl)hydrazinecarbothioamide] showed a melting point of 112 to 114 °C. Also, the IC50 in data set [1] stood at 4 ± 2.4 µM.

Take `CC(=NNC(=S)NCCN1CCOCC1)c1ccc(Br)s1` [Compound 5h, 2-(1-(5-Bromothiophen-2-yl)ethylidene)-N-(2-morpholinoethyl)hydrazinecarbothioamide]: the melting point was 148 to 150 °C. Besides, the half-inhibitory concentration (IC50) in data set [1] came to 3.98 ± 2.2 µM.

Compound `CC(=NNC(=S)NCCN1CCOCC1)c1ccc([N+](=O)[O-])s1` [Compound 5i, N-(2-morpholinoethyl)-2-(1-(5-nitrothiophen-2-yl)ethylidene)hydrazinecarbothioamide] came in with a melting point of 192 to 194 °C. The same compound registered a 50% inhibitory concentration (IC50) in data set [1] of 3.9 ± 2.7 µM.

Compound `CC(=NNC(=S)NCCN1CCOCC1)c1ccc(C)s1` [Compound 5d, 2-(1-(5-Methylthiophen-2-yl)ethylidene)-N-(2-morpholinoethyl)hydrazinecarbothioamide] gave a melting point of 156 to 158 °C. In addition, in data set [1], the IC50 was determined as 4.6 ± 2.6 µM and the “fold stronger inhibitory potential than thiourea” value is 4.8 fold.

`CC(=NNC(=S)NCCN1CCOCC1)c1sccc1Br` [Compound 5f, 2-(1-(3-Bromothiophen-2-yl)ethylidene)-N-(2-morpholinoethyl)hydrazinecarbothioamide] showed a melting point of 124 to 126 °C. This compound also came in with an IC50 in data set [1] of 5.77 ± 0.7 µM.

The compound `CC(=NNC(=S)NCCN1CCOCC1)c1cccs1` [Compound 5b, N-(2-morpholinoethyl)-2-(1-(thiophen-2-yl)ethylidene)hydrazinecarbothioamide] displayed a melting point of 142 to 144 °C. This compound had a concentration for half-maximal inhibition (IC50) in data set [1] of 4.96 ± 3 µM.
